Source: patent US20230019619A1, “TREATMENT OF A DISEASE OF THE GASTROINTESTINAL TRACT WITH A TLR MODULATOR” (BIORA THERAPEUTICS, INC., priority 2016, published 2023)

Experiment: Tacrolimus tissue pharmacokinetics, oral versus intra-cecal ingestible device delivery
Assay type: in vivo, Yorkshire-Cross farm swine
Conditions: swine, intra-cecal as compared to oral, 12 hours post-dose
Method: The primary objective of this study was to compare the tissue, plasma, rectal sample, and GI content pharmacokinetics of tacrolimus through oral versus intra-cecal ingestible device delivery in normal Yorkshire-Cross farm swine.
No further randomization procedure was employed.
Animals in Group 1 received an ingestible device containing 0.8 mL of vehicle solution (80% alcohol, 20% HCO-60). Animals in Group 2 received orally […] liquid formulation of tacrolimus at 4 mg/0.8 mL per animal (Prograf: 5 mg/mL). Animals in Group 3 received intra-cecally an ingestible device containing tacrolimus at 1 mg in 0.8 mL per ingestible device. […]
Approximately 200˜400 mg of rectal content were collected, if available, with a fecal swab (Copan Diagnostics Nylon Flocked Dry Swabs, 502CS01). The fecal swab was pre-weighed and weighed after collection in the collection tube (Sterile Tube and Cap No Media, PFPM913S), and the sample weight was recorded. […]
For tissue necropsy, small intestine fluid and cecal fluid were collected separately from all the animals into two separate square plastic bottles, and stored at −20° C. The length and diameter of the cecum and the colon was measured from one animal in each group and recorded for reference. […] All samples were weighed, and the tissue sample weights were recorded. […]

SMILES: C=CC[C@@H]1/C=C(\C)C[C@H](C)C[C@H](OC)[C@H]2O[C@@](O)(C(=O)C(=O)N3CCCC[C@H]3C(=O)O[C@H](/C(C)=C/[C@@H]3CC[C@@H](O)[C@H](OC)C3)[C@H](C)[C@@H](O)CC1=O)[C@H](C)C[C@@H]2OC [tacrolimus]
- mean concentration in the cecum tissue and the proximate colon tissue (FIG. 76): higher
